Test results reported in patent US12377086B2, “Therapeutic methods, combinations and kits” (priority 2021, dated 2025).
Read-outs that look alike come from different tables or passages of the source.

Key:
in vitro [1] = settings: human
Method: (§5) Human embryonic kidney cell line (HEK293) were grown in 100 mm cell culture petri dishes at 37° C. with 5% CO2 in Dulbecco's Modified Eagle's Medium high glucose medium containing 1% penicillin/streptomycin (Sigma-Aldrich, St. Louis, MO) and supplemented with 5% of fetal bovine serum (Thermo Fisher Scientific Gibco®). Cells under 10 passages and the 80% of monitored cell petri dish were used for experiment.
(§6) Cytotoxicity of tested compounds were estimated using the MTT method. Cell viability were measured by counting viable cells by using the 3 (4,5dimethylthiazol-2-yl)-2,5-diphenyltetrazolium bromide (MTT) (Sigma-Aldrich, St. Louis, MO) colorimetric dye-reduction assay. […] Following 24 h incubation and attachment, the cells were incubated for 72 h with different concentrations of inhibitors (0.01˜100 μM) in culture media without FBS. The Control cells were supplemented only with a medium without containing FBS. All samples in 96 well plate were incubated at 37° C. at an atmosphere of 5% CO2. […] The absorbance was measured using a micro-plate reader at wavelength 590 nm. The CC50 were obtained based on a comparison with untreated cells by fitting the data to a sigmoidal dose-response equation using Graphpad Prism 6.

VIM-2 [2] = target: T1, VIM-2 (Pseudomonas aeruginosa, UniProt Q5U7L7); assay: biochemical; settings: for inhibition at 50 µM: read-out: VIM-2 percentage inhibition, 50 μM compound, 5 nM MBL, 10 μM nitrocefin, 30 mins; for VIM-2 percentage inhibition: 50 μM compound, 5 nM MBL, 10 μM nitrocefin, 30 mins
Method: (§1) The pET24a-VIM-2 plasmid was transformed into competent BL21 (DE3) E. coli cells. The cells were plated onto an LB-agar plate with kanamycin (25 μg/mL) and incubated overnight at 37° C. A single colony was used to inoculate 50 mL of LB, containing 25 μg/mL kanamycin, and the culture was shaken overnight at 37° C. From the overnight culture, 10 mL were transferred to 4×IL LB medium containing 25 μg/mL kanamycin. The cultures were grown at 37° C. until an optical density (OD600 nm) of 0.6-0.8 was reached, at which point protein production was induced with IPTG (0.5 mM) and ZnCl2 (100 μM). The temperature was reduced to 20° C., and the cells were shaken for an additional 18 h. The cultures were harvested by centrifugation (8 Kxg) for 10 min at 4° C. The resulting pellets were re-suspended in 25 mL of 50 mM HEPES, pH 7.5, containing 500 mM NaCl (buffer B). The cells were lysed with three passes through a French Press. The lysate was centrifuged (15 Kxg) for 30 min at 4° C. The supernatant was dialyzed against 2 L of 50 mM HEPES, pH 7.5 (buffer A), for 4 h. Buffer A was used to equilibrate a 25 mL Q-Sepharose column using an FPLC. The sample was loaded onto the column, and proteins were eluted with a linear gradient 0-500 mM NaCl with buffer B. Fractions containing VIM-2, determined by SDS-PAGE, were pooled and concentrated to 2-3 mL in an Amicon ultraconcentrator equipped YM-10 membrane. Further purification was conducted with a Sephacryl S-200 gel filtration column using 50 mM HEPES, pH 7.5, containing 150 mM NaCl. Fractions containing pure VIM-2 were pooled, and metal analysis was performed.
(§2) To identify potential MBL inhibitors, the relative change in the formation of hydrolyzed nitrocefin between treated and untreated MBL was determined as percentage inhibition. 5 nM of each BML was pre-incubated for 10 mins with 50 μM of each compound, followed by the addition of 10 μM nitrocefin.
(§3) Each MBL was incubated with 50 μM of each compound, followed by the addition of nitrocefin. The relative change in absorbance is reported as percentage inhibition.

VIM-2 [3] = target: T1, VIM-2; settings: after incubation with inhibitor and dialysis
Method: VIM-2 was diluted to 6 μM with 50 mM HEPES, pH 7.5, containing 150 mM NaCl. The diluted protein solution was used to make several 5 mL aliquots. […] One aliquot contained one molar equivalent of inhibitor (6 μM), with respect to enzyme concentration, and the second aliquot contained two molar equivalents (12 μM). One aliquot contained no inhibitor. Each aliquot was then incubated for 4 h at 4° C. Following incubation, each aliquot was dialyzed versus 500 mL of 50 mM HEPES, pH 7.5, for 4 h at 4° C. The aliquots were analyzed using ICP-AES, as previously described REF. The emission wavelengths used were 213.856, 238.892, 259.940, 231.604, and 324.754 nm for Zn, Co, Fe, Ni, and Cu, respectively.
To further address the mode of action of 8-hydroxyquinolines, equilibrium dialysis experiments were conducted. […] EDTA, a well-known metal scavenger, inhibits all MBLs through a chelation mechanism (Bush, K.; Jacoby, G. A. Updated Functional Classification of beta-Lactamases. Antimicrobial Agents and Chemotherapy 2010, 54, 969-976).

VIM-2 expressing E. coli [4] = assay type: cell-based, Escherichia coli; settings: VIM-2 expressing E. coli, compound with amoxicillin
Method: (§4) The optical density of the cell cultured was monitored at 600 nm (OD600 nm). The cells were cultured on 0.8 g/100 ml nutrient agar plate at pH 7.0 and 37° C. […] An overnight culture of the bacterial strain was sub-cultured to 0.06 OD600 nm into the NB medium and was then seeded at max 200 μl into the wells of a 96 well microtiter plate. Samples were then incubated at 37° C. and shaken at 200 rpm for 18 h. The absorbance was measured on an ELIZA plate reader and analyzed with the Gen5™ software suite (version 1.08).
• The data are reported as relative percentage growth compared to untreated cells.

in vitro [5] = settings: human, plasma
Method: The plasma stability assay was performed in triplicate by incubating the test compound in normal human plasma at 37° C. At 0, 1, 3, 6, and 24 h, aliquots of the plasma mixture were taken and quenched with 3 volumes of acetonitrile. The samples were then vortexed and centrifuged at 14,000 rpm for 3 min at 4° C. The supernatants were collected and analyzed by LC-MS/MS to determine the remaining percentage at various time points and to calculate plasma half-life (t1/2).

in vitro [6] = settings: human, microsomes, pH 7.4
Method: The in vitro microsomal stability assay was conducted in triplicate in human liver microsomal systems. In a typical incubation, the test compound was spiked into the reaction mixture containing 0.5 mg/mL of liver microsomal protein and 1 mM of NADPH in 0.1 M potassium phosphate buffer (pH 7.4) at 37° C. At various time points, 1 volume of reaction aliquot was taken and quenched with 3 volumes of acetonitrile. The samples were then vortexed and centrifuged at 14,000 rpm for 3 min at 4° C. The supernatants were collected and analyzed by LC-MS/MS to determine the in vitro metabolic half-life (t1/2) and intrinsic clearance (CLint).

NDM-1 = NDM-1 (Klebsiella pneumoniae, UniProt C7C422); assay: biochemical; settings: read-out: NDM-1 percentage inhibition, 50 μM compound, 5 nM MBL, 10 μM nitrocefin, 30 mins
Chain of NDM-1 (C7C422 whole entry, looked up, species assumed): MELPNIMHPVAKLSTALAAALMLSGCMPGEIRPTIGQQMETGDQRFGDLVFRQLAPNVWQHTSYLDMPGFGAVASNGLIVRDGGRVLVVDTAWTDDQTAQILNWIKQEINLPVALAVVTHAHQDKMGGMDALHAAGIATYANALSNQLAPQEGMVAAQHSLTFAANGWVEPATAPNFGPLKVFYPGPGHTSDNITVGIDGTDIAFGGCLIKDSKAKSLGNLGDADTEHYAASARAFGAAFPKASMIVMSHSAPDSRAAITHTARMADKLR
Method: BL21 (DE3) E. coli cells containing the pET26b-ndm-1 plasmid were used to inoculate a 50 mL LB starter culture containing kanamycin (25 μg/mL). The culture was grown overnight at 37° C. The starter culture was then used to inoculate 4×1 L LB containing kanamycin (25 μg/mL). These flasks were incubated at 37° C. until culture reached an optical density of (OD600) of 0.6 to 0.8. The incubator was then set to 22° C. and the cultures were shaken for 30 min to allow them to cool. ZnCl2 ([…]) and IPTG (0.5 mM) were then added to the cultures and they were grown for 18 h at 22° C. The cells were then harvested using centrifugation (8000×g) for 10 min. The pellet was resuspended with 25 mL 50 mM HEPES, pH 7.5 containing 500 mM NaCl (Buffer B). Lysis was performed with three passes through a French Press. The lysate was centrifuged for 30 min (15,000×g) at 4° C. The supernatant was then dialyzed versus 2 L 50 mM HEPES, pH 7.5 (Buffer C) for 4 h. An FPLC was used to equilibrate a Q-Sepharose column using buffer C using a flowrate of 2.0 mL/min for 1.5 h. The lysate was then loaded onto the column and eluted with a linear NaCl gradient from 0-500 mM. Fractions containing NDM-1 were identified with SDS-PAGE. These fractions were pooled and concentrated to 2-3 mL in an Amicon ultracentrifugation concentrating unit with a YM-10 membrane. The resulting protein mixture was then loaded onto a Sephacryl S-200 gel filtration column run with 50 mM HEPES, pH 7.5 containing 150 mM NaCl (Buffer A). SDS-PAGE was used to identify fractions containing pure protein.
as §2, §3

VIM-2 [7] = target: T1, VIM-2; assay: biochemical
Method: as §1, with “Further purification was conducted with a Sephacryl S-200 gel filtration column using 50 mM HEPES, pH 7.5, containing 150 mM NaCl.” left out
The enzyme inhibition constant (Ki) was derived from initial-velocity measurements by nonlinear regression using competitive-inhibition enzyme kinetics using Graphpad Prism 6.

HEK293 cells = assay: Human cell cytotoxicity assay (MTT); settings: 72 h
Method: as §5, §6

VIM-2 expressing E. coli [8] = assay type: cell-based, Escherichia coli
Method: as §4
The bacterial culture was prepared as described above. The diluted subculture bacteria in NB medium were set up to a final volume of 200 μl in clear flat-bottom 96-well plates containing ten different concentrations of each tested compound ranging from 0.001 μM to 50 μM. The mixing of the bacterial culture plate were then incubated in a 37° C. […] shaken incubator at 200 rpm for 18 h before measuring their optical density at 600 nm.

[9] = cited from earlier work
[10] = in the presence of 50 μM amoxicillin
[11] = 5 nM MBL, 10 μM nitrocefin, read-out: VIM-2 IC50
[12] = nitrocefin substrate, competitive-inhibition fit, read-out: VIM-2 Ki

SMILES | inhibition at 50 µM (VIM-2 [2]) [%] | metal content of VIM-2 / removal of Zn(II) from the active site (VIM-2 [3]) | synergistic growth inhibition (VIM-2 expressing E. coli [4]) | IC50 (VIM-2 [7]) [nM] | Ki (VIM-2 [7]) [nM] | VIM-2 percentage inhibition (VIM-2 [2]) [%] | CC50 (HEK293 cells) [nM] | EC50 (VIM-2 expressing E. coli [8]; [10]) [nM] | IC50 (VIM-2 [7]; [11]) [nM] | Ki (VIM-2 [7]; [12]) [nM] | also measured
O=C(O)c1ccc2cccnc2c1O [Compound 45, 8-hydroxyquinoline-7-carboxylic acid] | 94 | do not inhibit VIM-2 by removal of Zn(II) | over 96% |  |  |  |  |  |  |  | CC50 at 72 h (in vitro [1]; HEK293 cells): > 100000 nM; half-life (in vitro [5]): > 24 h; half-life (in vitro [6]): > 1 h; inhibition at 50 µM (NDM-1): 99%
O=C(O)c1cccc(=S)n1O [Compound 51, 1-hydroxypyridine-2 (1H)-thione-6-carboxylic acid, reference compound] |  |  |  | 310 | 20 |  |  |  |  |  | CC50 at 72 h (in vitro [1]): 92000 nM
O=[N+]([O-])c1ccc(O)c2ncccc12 [Compound 41] |  |  |  |  |  | 86 | 7800 | 70 | 670 | 250 | EC50 (VIM-2 expressing E. coli [8]; 50 uM amoxicillin): 70 nM
Oc1c(I)cc(Cl)c2cccnc12 [Compound 48, Clioquinol, reference compound] |  | do not inhibit VIM-2 by removal of Zn(II) | over 96% |  |  | 93 | 18300 | 940 | 5100 | 1100 | 
Oc1cccc2cccnc12 [Compound 31, 8-Hydroxyquinoline] | > 96 | do not inhibit VIM-2 by removal of Zn(II) |  | 3600 | 670 | 98 |  |  |  |  | pKa, hydroxyl group ([9]; hydroxyl group): 9.89; pKa, nitrogen atom ([9]; nitrogen atom): 5.13
